Measurements taken from patent US7579448B2, “Purification of microbial cell fermentation homogenates” (Genentech, Inc., priority 2003, dated 2009).

Legend:
[1] = Conductivity study: NaCl added to anti-CD18 homogenate with 0.6% ethacridine lactate; assay type: physicochemical; settings: 100 mM NaCl, anti-CD18 homogenate diluted 4-fold
Method: Various concentrations of NaCl were added to anti-CD18 homogenate to evaluate the effect of conductivity on protein precipitation. The NaCl concentrations studied were 0, 50, 100, 150, 200, and 400 mM. A reference series without ethacridine lactate was also performed to determine if any protein was precipitated due to the high salt concentration. The pH in this salt spike study was 8.5 and the anti-CD18 homogenate was diluted 4-fold. The ethacridine lactate concentration in the samples was 0.6% and 0% for the reference experiments.

[2] = Ethacridine lactate solubility at increasing NaCl concentrations; assay type: physicochemical
Method: The samples were incubated for three hours at room temperature before the concentration of soluble ethacridine lactate was determined. The open keys symbolize the 1.2% ethacridine lactate solution and the closed keys the 0.6% solution. The solid line is the 0.6% ethacridine lactate solution at pH 6.0, the broken line is the 1.2% ethacridine lactate solution at pH 6, the dotted line is the 0.6% ethacridine lactate solution at pH 9, and the broken line with dots is the 1.2% ethacridine lactate solution at pH 9.
Two ethacridine lactate solutions, i.e., 0.6 and 1.2%, were studied. Each solution was divided into two aliquots and pH adjusted to 6.0 and 9.0, respectively. To obtain a slight buffer capacity in the system, the ethacridine lactate was dissolved in 10 mM Tris-HCl buffer. Each ethacridine lactate solution was exposed to increasing amounts of NaCl, i.e., 0, 50, 100, 150, 200, 300, and 600 mM. The samples were incubated for 3 hours, then centrifuged for 20 minutes at 12000 g in a microfuge (SORVALL MC12V™, DuPont, Wilmington, Del., USA). The supernatants were assayed for ethacridine lactate by measuring the absorption at 270 nm. The spectrophotometer used was a HP8453 UV-VIS™ from Hewlett Packard (Wilmington, Del.), now Aligent Technologies (Palo Alto, Calif.) and known as the AGILENT 8453 UV-VIS™ spectrophotometer. A standard curve was derived from a solution with known ethacridine lactate concentration.

solubility of ethacridine lactate ([2]; pH 6, 0.6 and 1.2% solutions, 50 mM NaCl, 3 hours at room temperature): soluble
solubility of ethacridine lactate ([2]; pH 6, 0.6 and 1.2% solutions, 100 mM NaCl, 3 hours at room temperature): nearly fully precipitated
SMILES: CC(O)C(=O)O.CCOc1ccc2nc3cc(N)ccc3c(N)c2c1 [ethacridine lactate, 6,9-diamino-2-ethoxyacridine lactate]
precipitation of ethacridine lactate in the extraction system [1]: precipitation of ethacridine lactate was observed
solubility of ethacridine lactate ([2]; pH 9, 0.6% solution compared with 1.2% solution, increasing NaCl): precipitated at lower salt concentration than the more concentrated ethacridine lactate solution
